According to patent US7655665B2, “Nitromethylene derivatives and their use” (East China University of Science and Technology, priority 2004, dated 2010):

Assays:
Nilaparvata lugens = experiment: Insecticidal activity against Nilaparvata lugens (planthopper) by spraying; format: in vivo; conditions: 500 ppm; for mortality (%) (500 ppm) Nilaparvata-lugens: spraying 2 ml per tumbler, killed counted after 24 hours; for mortality (%) (500 ppm) Nilaparvata lugens: spraying 2 ml, counted after 24 hours
Procedure: (§1) Test on the insecticidal activity of Compound Nos. 1-227
Planthopper, which belongs to Homoptera and has a piercing-sucking mouthpart, is a common insect for agricultural plant. Nilaparvata lugens was tested by the way of spraying.
Test method: the test compound was exactly formulated into a solution having a certain concentration and clean water was used as a blank control. Each process was repeated for 3 tumblers (3 times). 2 ml of solution was sprayed uniformly to each tumbler by a mini manual sprayer. 10 Nilaparvata lugens were introduced to every sink 6 hours before spraying. Three series of experiments were conducted. The number of killed Nilaparvata lugens was counted after 24 hours to calculate the mortality.

Aphis craccivoral = experiment: Insecticidal activity against Aphis craccivoral by immersing (dipping aphids on bean sprout); format: in vivo; conditions: 23° C.
Procedure: as §1
Aphis, which belongs to Homoptera and has a piercing-sucking mouthpart, is a common insect for agricultural plant. Aphis craccivoral was tested by the way of immersing.
Test method: exactly weighed various samples were independently added to N,N-dimethylformamide to form a 10 g/L stock solution. The mixture was diluted with 0.2 mL/L aqueous Triton X-100 solution to a concentration of 500 ug/mL. After stably sucking on bean sprout, the adult aphis without wings together with bean sprout was dipped into 500 ug/mL dilution, taken out after 5 seconds, and the excess dilution was sucked out with bibulous paper and the adult aphis without wings was incubated in clean vessel at a constant temperature of 23° C. Each concentration was repeated for 3 times and the control group contained 0.2 mL/L aqueous Triton X-100 solution. The number of killed aphis was counted after 24 hours to calculate the mortality.

[1] = 500 ppm (500 ug/mL dilution), dipped 5 seconds, killed aphis counted after 24 hours
[2] = 500 ppm, immersing (dipped 5 seconds), counted after 24 hours

SMILES | mortality (%) (500 ppm) Nilaparvata-lugens (Nilaparvata lugens) | mortality (%) (500 ppm) Aphis (Aphis craccivoral; [1]) | mortality (%) (500 ppm) Nilaparvata lugens (Nilaparvata lugens) | mortality (%) (500 ppm) Aphis (Aphis craccivoral; [2])
N=C1CCC([N+](=O)[O-])=C2N(Cc3cnc(Cl)s3)CCN12 [Compound 212] | 23% | 34% | – | –
O=[N+]([O-])C1=C2N(Cc3ccc(Cl)nc3)CCN2C(OC2CCCCC2)CC1 (racemic) [Compound 18] | – | – | 67% | 23%
CCSC1CCC([N+](=O)[O-])=C2N(Cc3ccc(Cl)nc3)CCN21 (stereo not drawn) [Compound 133] | – | – | 100% | 100%
CCCSC1CCC([N+](=O)[O-])=C2N(Cc3cnc(Cl)s3)CCN21 (stereo not drawn) [Compound 175] | 100% | 89% | – | –
CCCC(C)N=C1CCC([N+](=O)[O-])=C2N(Cc3ccc(Cl)nc3)CCN12 (stereo not drawn) [Compound 197] | 56% | 8% | – | –
CCOC1CCC([N+](=O)[O-])=C2N(Cc3cnc(Cl)s3)CCN21 (racemic) [Compound 25] | – | – | 100% | 100%
CCCSC1CCC([N+](=O)[O-])=C2N(Cc3ccc(Cl)nc3)CCN21 (stereo not drawn) [Compound 136] | – | – | 100% | 100%
O=[N+]([O-])C1=C2N(Cc3ccc(Cl)nc3)CCN2C(SC(C(F)(F)F)C(F)(F)F)CC1 (stereo not drawn) [Compound 138] | – | – | 98% | 45%
C#CCOC1CCC([N+](=O)[O-])=C2N(CC3CCOC3)CCN21 (stereo not drawn) [Compound 65] | – | – | 34% | 47%
CS(=O)(=O)OC1CCC([N+](=O)[O-])=C2N(Cc3cnc(Cl)s3)CCN21 (stereo not drawn) [Compound 156] | – | – | 92% | 78%
CC(C)CCOC1CCC([N+](=O)[O-])=C2N(CC3CCOC3)CCN21 (stereo not drawn) [Compound 60] | – | – | 5% | 3%
CCCN=C1CCC([N+](=O)[O-])=C2N(Cc3ccc(Cl)nc3)CCCN12 [Compound 205] | 100% | 35% | – | –
CCC(=O)OC1CCC([N+](=O)[O-])=C2N(Cc3cnc(Cl)s3)CCN21 (stereo not drawn) [Compound 153] | – | – | 38% | 29%
CC(C)N=C1CCC([N+](=O)[O-])=C2N(Cc3ccc(Cl)nc3)CCN12 [Compound 193] | 98% | 93% | – | –
O=C(OC1CCC([N+](=O)[O-])=C2N(Cc3cnc(Cl)s3)CCN21)c1ccccc1F (stereo not drawn) [Compound 168] | 100% | 56% | – | –
CSC1CCC([N+](=O)[O-])=C2N(Cc3cnc(Cl)s3)CCN21 (stereo not drawn) [Compound 171] | 100% | 97% | – | –
O=[N+]([O-])C1=C2N(Cc3ccc(Cl)nc3)CCN2C(OS(=O)(=O)c2ccccc2)CC1 (stereo not drawn) [Compound 119] | – | – | 23% | 3%
CCOCCOC1CCC([N+](=O)[O-])=C2N(Cc3ccc(Cl)nc3)CCCN21 (stereo not drawn) [Compound 84] | – | – | 39% | 26%
CC1CC(O)N2CCN(Cc3cnc(Cl)s3)C2=C1[N+](=O)[O-] (stereo not drawn) [Compound 70] | – | – | 12% | 33%
CC(C)COC1CCC([N+](=O)[O-])=C2N(Cc3cnc(Cl)s3)CCN21 (racemic) [Compound 32] | – | – | 23% | 37%
CCC(C)OC1CCC([N+](=O)[O-])=C2N(CC3CCOC3)CCN21 (stereo not drawn) [Compound 59] | – | – | 3% | 2%
